Counter-ions that a name gives are not always drawn.
Tests used:
Format in all cases: cell-based
[1] = test system: p-ERK; experiment: Cell p-ERK assay (HTRF, Advance ERK phospho-T202/Y204 kit) in AsPC-1 cells; conditions: ASPC1; AsPC-1, human pancreatic cancer cell strain, KRAS G12D mutation; 3 h compound incubation
Description: AsPC-1 cells were purchased from ATCC, Cat. No. CRL-1682; NCI-H441 cells were purchased from ATCC, Cat. No. HTB-174; RPMI-1640 medium was purchased from Gibco, Cat. No. 11875-093; FBS was purchased from Gibco, Cat. No. 10099-141C; penicillin/streptomycin double-antibiotic solution (PS) was purchased from Gibco, Cat. No. 15140-122; trypsin (containing EDTA) was purchased from Gibco, Cat. No. 25200-072; DMSO was purchased from VWRAMRESCO, Cat. No. 0231-500ML; 96-well cell culture plates were purchased from Corning, Cat. No. 3599; white-bottomed, opaque 96-well plates were purchased from Cisbio, Cat. No. 66PL96025; Advance ERK phospho-T202/Y204 kit was purchased from Cisbio, Cat. No. 64AERPEH; cell counter was purchased from CHEMOMETEC, model: NC-200; microplate reader was purchased from PerkinElmer, model: EnVision.
AsPC-1, a human pancreatic cancer cell strain endogenously containing a KRAS^G12D mutation, was cultured in a complete medium containing RPMI-1640 + 10% FBS + 1% PS. NCI-H441, a human non-small cell lung cancer cell strain endogenously containing a KRAS^G12V mutation, was cultured in a complete medium containing RPMI-1640 + 10% FBS + 1% PS.
The cells were digested with trypsin (containing EDTA), collected in their corresponding complete media, and counted. The density of the cell suspensions was adjusted with their corresponding complete media, and AsPC-1 cells (10000 cells/well) or NCI-H441 cells (20000 cells/well) were seeded into a 96-well cell culture plate, with the volume of the medium in each well being 80 µL. The cell culture plate was incubated in an incubator at 37 °C with 5% CO2 overnight. A series of 3.16-fold gradient dilutions of a 1000× compound stock solution were prepared with DMSO, and then diluted 200-fold with the complete medium described above to give 5× compound stock solutions. On the day after cell seeding, 20 µL of the 5× compound stock solution was added to each cell culture well. As a result, the final concentration of the compound in the cell culture well became 1×, and the DMSO content in the well was 0.1%. In addition to the compound-treated wells described above, cell-containing DMSO control wells were also set. A complete medium containing 0.5% DMSO was added at 20 µL/well. After the mixture was well mixed, the culture plate was incubated in the incubator at 37 °C with 5% CO2 for another 3 h. The medium was then removed from the culture wells, and 50 µL of cell lysis buffer (from Advance ERK phospho-T202/Y204 kit) was added to each well. The mixture was well mixed, incubated for 30 min, and then transferred to a white-bottomed, opaque 96-well assay plate at 16 µL/well, and separately, 16 µL of cell lysis buffer was added to additional wells (serving as blank wells) in the assay plate. After the transfer was completed, 4 µL of p-ERK HTRF antibody mixture (from Advance ERK phospho-T202/Y204 kit) was added to each well of the assay plate, followed by a 4-hour incubation. The HTRF signal values (RLU) were then measured using a microplate reader, and the inhibition rate of the compound against p-ERK levels was calculated as follows: IR(%) = (RLUDMSO - RLUcompound)/(RLUDMSO - RLUblank) × 100%, where RLUDMSO is the average HTRF signal value from the DMSO control well samples, RLU is the average HTRF signal value from the blank well samples, and RLUcompound is the HTRF signal value from the compound-treated well samples. Using an XLfit software, the IR(%) values were plotted against the logarithm of the compound concentrations, and the dose-response curves were fitted using the four-parameter method to calculate the IC50 values.

[2] = test system: p-ERK; experiment: Cell p-ERK assay (HTRF, Advance ERK phospho-T202/Y204 kit) in NCI-H441 cells; conditions: NCI-H441, human non-small cell lung cancer cell strain, KRAS G12V mutation, 3 h compound incubation
Outline: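 AsPC-1 (KRAS G12D) or NCI-H441 (KRAS G12V) cells seeded overnight, then treated 3 h at 37 °C with compound (0.1% DMSO) in RPMI-1640/10% FBS. Lysates assayed for ERK phospho-T202/Y204 by HTRF; inhibition vs DMSO and blank wells, IC50 from four-parameter fit.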

[3] = test system: NCI-H441 cells; experiment: 3D cell proliferation assay (CellTiter Glo-3D) in NCI-H441 cells; conditions: NCI-H441, human lung cancer cell strain, KRAS G12V mutation; 3D culture, 2% FBS, 5 days; read-out: H441 AP IC50
Text: MIA PaCa-2 cells were purchased from ATCC, Cat. No. CRL-1420; AsPC-1 cells were purchased from ATCC, Cat. No. CRL-1682; NCI-H441 cells were purchased from ATCC, Cat. No. HTB-174; NCI-H1975 cells were purchased from ATCC, Cat. No. CRL-5908; DMEM medium was purchased from Gibco, Cat. No. 11995-065; RPMI-1640 medium was purchased from Gibco, Cat. No. 11875-093; FBS was purchased from Gibco, Cat. No. 10099-141C; penicillin/streptomycin double-antibiotic solution (PS) was purchased from Gibco, Cat. No. 15140-122; Horse serum was purchased from Gibco, Cat. No. 16050130; trypsin (containing EDTA) was purchased from Gibco, Cat. No. 25200-072; DMSO was purchased from VWRAMRESCO, Cat. No. 0231-500ML; 384-well cell culture plates were purchased from Corning, Cat. No. 3830; white-bottomed, opaque 384-well assay plates were purchased from Corning, Cat. No. 3570; CellTiter Glo-3D kit was purchased from Promega, Cat. No. G9683; cell counter was purchased from CHEMOMETEC, model: NC-200; microplate reader was purchased from PerkinElmer, model: EnVision.
MIA PaCa-2, a human pancreatic cancer cell strain endogenously containing a KRAS^G12Cmutation, was cultured in a complete medium containing DMEM + 10% FBS + 2.5% Horse serum + 1% PS. AsPC-1, a human pancreatic cancer cell strain endogenously containing a KRAS^G12D mutation, was cultured in a complete medium containing RPMI-1640 + 10% FBS + 1% PS. NCI-H441 cells, a human lung cancer cell strain endogenously containing a KRAS^G12V mutation, were cultured in a complete medium containing RPMI-1640 + 10% FBS + 1% PS. NCI-H1975, a KRAS wild-type human lung cancer cell strain whose cell proliferation […], was cultured in a complete medium containing RPMI-1640 + 10% FBS + 1% PS.
The cells were digested with trypsin (containing EDTA), collected in their respective low-serum complete media containing 2% FBS (for MIA Paca-2 cell culture: DMEM + 2% FBS + 0.5% Horse serum + 1% PS), and counted. After the cell density was adjusted as required, MIA PaCa-2 cells (200 cells/well), AsPC-1 cells (800 cells/well), NCI-H441 cells (800 cells/well), or NCI-H1975 cells (400 cells/well) were seeded into a 384-well cell culture plate, with the volume of the medium in each well being 45 µL. The cell culture plate was incubated in an incubator at 37 °C with 5% CO2 overnight. A series of 3.16-fold gradient dilutions of a 1000× compound stock solution were prepared with DMSO, and then diluted 100-fold with the complete medium containing 2% FBS described above to give 10× compound stock solutions. On the day after cell seeding, 5 µL of the 10× compound stock solution was added to each cell culture well. As a result, the final concentration of the compound in the cell culture well became 1×, and the DMSO content in the well was 0.1%. In addition to the compound-treated wells described above, cell-containing DMSO control wells (with 5 µL of the complete medium containing 1% DMSO added to each well) and cell-free medium control wells (containing 50 µL of the complete medium with 2% FBS) were also set. The culture plate was incubated in an incubator at 37 °C with 5% CO2 for another 5 days, and then 30 µL of CellTiter-Glo working solution was added to each well. The mixture was well mixed, incubated for 30 min, left to stand at room temperature for 30 min, and then transferred to a white-bottomed, opaque 384-well assay plate at 40 µL/well. The chemiluminescence values (RLU) were measured using a microplate reader, and the cell proliferation inhibition rate for each well was calculated: IR(%) = (RLUDMSO - RLUcompound)/(RLUDMSO - RLUblank) × 100%, where RLUDMSO is the average RLU signal value from the DMSO control well samples, RLUblank is the average RLU signal value from the medium control well samples, and RLUcompound is the RLU signal value from the compound-treated well samples. […]

CCn1nc2c(c1-c1cc(N3CCN(C)CC3)cnc1[C@H](C)OC)CC(C)(C)COC(=O)[C@@H]1CCCN(N1)C(=O)[C@@H](NC(=O)[C@H]1[C@H](C)[C@@H]1C)Cc1nc(cs1)/C=C/2 (atropisomer, axis not shown) [Compound Z4]
IC50 [1]: 367 nM
IC50 ([2]; Homo sapiens, NCI-H441, 3 h): 157 nM

CCn1cc2c(c1-c1cc(C#CCN3CCC(C#N)CC3)cnc1[C@H](C)OC)CC(C)(C)COC(=O)[C@@H]1CCCN(N1)C(=O)[C@@H](NC(=O)[C@H]1[C@@H]3COC[C@@H]31)Cc1nc(co1)/C=C/2 (atropisomer, axis not shown; (Ra)) [Compound Z85, (1R,5S,6r)-N-((4^2Z,8^3S,2E,6S)-(Ra)-1^5-(5-(3-(4-cyanopiperidin-1-yl)prop-1-yn-1-yl)-2-((S)-1-methoxyethyl)pyridin-3-yl)-1^1-ethyl-12,12-dimethyl-7,9-dioxo-8^1,8^2,8^3,8^4,8^5,8^6-hexahydro-1^1H-10-oxa-4(4,2)-oxazola-8(1,3)-pyridazina-1(3,4)-pyrrolacyclotridecaphan-2-en-6-yl)-3-oxabicyclo[3.1.0]hexane-6-carboxamide]
IC50 [1]: 0.04 nM
IC50 ([2]; Homo sapiens, NCI-H441, 3 h): 0.2 nM

CCn1cc2c(c1-c1cc(C#CCN3CCC(C#N)(CN)CC3)cnc1[C@H](C)OC)CC(C)(C)COC(=O)[C@@H]1CCCN(N1)C(=O)[C@@H](NC(=O)[C@H]1[C@H](C)[C@@H]1C)Cc1nc(co1)/C=C/2 (atropisomer, axis not shown; (Ra)) [Compound Z234, (1r,2R,3S)-N-((4^2Z,8^3 S,2E,6S)-(Ra)-1^5-(5-(3-(4-(aminomethyl)-4-cyanopiperidin-1-yl)prop-1-yn-1-yl)-2-((S)-1-methoxyethyl)pyridin-3-yl)-1^1-ethyl-12,12-dimethyl-7,9-dioxo-8^1,8^2,8^3,8^4,8^5,8^6-hexahydro-1^1H-10-oxa-4(4,2)-oxazola-8(1,3)-pyridazina-1(3,4)-pyrrolacyclotridecaphan-2-en-6-yl)-2,3-dimethylcyclopropane-1-carboxamide]
IC50 [1]: 0.07 nM
IC50 ([2]; Homo sapiens, NCI-H441, 3 h): 0.36 nM

CCn1nc2c(c1-c1cc(N3CCN(C)CC3)cnc1[C@H](C)OC)CC(C)(C)COC(=O)[C@@H]1CCCN(N1)C(=O)[C@@H](NC(=O)[C@H]1[C@H](C)[C@@H]1C)Cc1nc(cs1)/C=C/2 (single isomer, unassigned) [Compound Z4-1]
IC50 [1]: 191 nM
IC50 ([2]; Homo sapiens, NCI-H441, 3 h): 71.8 nM

CO[C@@H](C)c1ncc(C#CCN2CCS(=O)(=O)CC2)cc1-c1c2c(nn1C(C)C)/C=C/c1csc(n1)C[C@H](NC(=O)[C@H](Cc1cccc3ncccc13)C(C)C)C(=O)N1CCC[C@H](N1)C(=O)OCC(C)(C)C2 [Compound Z44-2, (2R)-N-((4^2Z,8^3S,2E,6S)-1^5-(5-(3-(1,1-dioxidothiomorpholino)prop-1-yn-1-yl)-2-((S)-1-methoxyethyl)pyridin-3-yl)-1^1-isopropyl-12,12-dimethyl-7,9-dioxo-8^1,8^2,8^3,8^4,8^5,8^6-hexahydro-1^1H-10-oxa-4(4,2)-thiazola-8(1,3)-pyridazina-1(3,4)-pyrazolocyclotridec-2-en-6-yl)-3-methyl-2-(quinolin-5-ylmethyl)butanamide formate]
IC50 [3]: 76.3 nM
IC50 [2]: 15.4 nM

(2R)-N-((4^2Z,8^3S,2E,6S)-(Ra)-1^5-(5-(3-(1,1-dioxothiomorpholino)prop-1-yn-1-yl)-2-((S)-1-methoxyethyl)pyridin-3-yl)-1^1-ethyl-12,12-dimethyl-7,9-dioxo-8^1,8^2,8^3,8^4,8^5,8^6-hexahydro-1^1H-10-oxo-4(4,2)-thiazola-8(1,3)-pyridazina-1(3,4)-pyrrolacyclotridecaphan-2-en-6-yl)-3-methyl-2-(N-methyl-2-phenylacetamido)butanamide [Compound Z47-2]
IC50 [3]: 37.6 nM
IC50 [2]: 17.3 nM

Source: patent EP4772514A1, “MACROCYCLIC COMPOUNDS, PREPARATION METHOD THEREFOR, AND USE THEREOF” (Genfleet Therapeutics (Shanghai) Inc., priority 2023, dated 2025)
